Source: patent US20220125886A1 (The Board of Trustees of the Leland Stanford Junior …, priority 2019, published 2022)
Entries after “also recorded” stand apart in the source; their conditions may differ.

Tests used:
[1] = reported previously, used for the fit; cited from earlier work
[2] = Diffusion-ordered NMR spectroscopy (DOSY) of protein/CB[7]-PEG complexes; format: physicochemical; details: for diffusion rate D: DOSY, protein 6 mg mL^−1, 200 mM phosphate buffer pH 7, D2O, zinc removed with EDTA; for hydrodynamic radius (Rh): approximated from D by the Stokes-Einstein relationship
Excerpt: A Varian Inova 600 MHz NMR instrument was used to acquire the data. Magnetic field strengths ranging from 2 to 57 G cm^−1. The DOSY time and gradient pulse were set at 132 ms (Δ) and 3 ms (δ) respectively. All NMR data were processed using MestReNova 11.0.4 software.

[3] = Circular dichroism of protein secondary structure when bound to CB[7]-PEG; format: physicochemical; details: PBS pH 7.4, with CB[7]-PEG, with or without EDTA
Experimental: After mixing, samples were left to equilibrate for 15 minutes at room temperature. […] circular dichroism spectroscopy was performed at 20° C. with a J-815 CD Spectropolarimeter (Jasco Corporation) over a wavelength range of 185-250 nm using a 0.1 cm pathlength cell.

[4] = In vitro stability: aggregation under stressed conditions by change in transmittance at 540 nm; format: physicochemical
Experimental: These aggregates are large and scatter light, allowing the degree of aggregation to be evaluated by measuring the change in transmittance over time. […] Data shown in FIGS. 2A-2E are the average transmittance trace for n=3 samples per group.
The plate was immediately placed into an plate reader and incubated with continuous shaking 37° C. Absorbance readings were taken every 10 minutes at 540 nm for 100 h (BioTek SynergyH1 microplate reader).
Controls included: (i) NOVOLOG®, (ii) zinc-free NOVOLOG®, (iii) pramlintide (sodium acetate buffer at pH=4), (iv) pramlintide (PBS at pH=7), (v) NOVOLOG®+pramlintide (PBS at pH=7.4).

[5] = given for comparison; cited from earlier work
[6] = according to Webber et al., agitation; cited from earlier work

Compound | diffusion rate D [2] | hydrodynamic radius (Rh) [2] [nm] | effect of CB[7]-PEG binding on protein (secondary) structure [3] | further results
CN(C)c1ccc2cc3ccc(N(C)C)cc3nc2c1 [AO, Acridine Orange] |  |  |  | CB[7]⋅AO equilibrium constant (Keq) [1]: 200000 M⁻¹
CC[C@H](C)[C@H](NC(=O)[C@@H]1CCCN1C(=O)CNC(=O)[C@H](Cc1ccccc1)NC(=O)[C@H](CC(N)=O)NC(=O)[C@H](CC(N)=O)NC(=O)[C@H](CO)NC(=O)[C@H](CO)NC(=O)[C@H](Cc1c[nH]cn1)NC(=O)[C@@H](NC(=O)[C@H](CC(C)C)NC(=O)[C@H](Cc1ccccc1)NC(=O)[C@H](CC(N)=O)NC(=O)[C@H](C)NC(=O)[C@H](CC(C)C)NC(=O)[C@H](CCCNC(=N)N)NC(=O)[C@H](CCC(N)=O)NC(=O)[C@@H](NC(=O)[C@H](C)NC(=O)[C@@H]1CSSC[C@H](NC(=O)[C@@H](N)CCCCN)C(=O)N[C@@H](CC(N)=O)C(=O)N[C@@H]([C@@H](C)O)C(=O)N[C@@H](C)C(=O)N[C@@H]([C@@H](C)O)C(=O)N1)[C@@H](C)O)C(C)C)C(=O)N[C@@H](CC(C)C)C(=O)N1CCC[C@H]1C(=O)N1CCC[C@H]1C(=O)N[C@H](C(=O)N[C@@H](CC(N)=O)C(=O)N[C@H](C(=O)NCC(=O)N[C@@H](CO)C(=O)N[C@@H](CC(N)=O)C(=O)N[C@H](C(=O)N[C@@H](Cc1ccc(O)cc1)C(N)=O)[C@@H](C)O)C(C)C)[C@@H](C)O [pramlintide] | ~2×10^−10 m^2 s^−1 | 1.2 | did not affect protein structure; also recorded: no difference in protein secondary structure was observed | ratio of diffusion rates, pramlintide alone to insulin in a standard formulation ([2]; standard formulation): ~2.3; time stable ([4]; pH=4 sodium acetate buffer): over 100 hours; time to aggregation / time stable ([4]; pH=7.4 in PBS, aggregation measured as ~5% change in transmittance at 540 nm): 15 ± 4 h
insulin aspart | ~1.2×10^−10 m^2 s^−1 | ~2.2 | did not affect protein structure; also recorded: did not alter the secondary structure | 
insulin hexamer: hexameric association state of insulin in standard zinc formulations |  |  |  | hydrodynamic radius [5]: approximately 2.8 nm
native insulin: recombinant human insulin of Webber et al. |  |  |  | aggregation time (tA), 10% reduction in transmittance [6]: 13.6 ± 0.2 h
